Assay results reported in BindingDB's records for doi:10.1002/1439-7633(20020902)3:9 (New York University, 2002).

Target: Inositol-trisphosphate 3-kinase A (Homo sapiens, UniProt P23677)
Assay: Inhibition Assay
Conditions: pH 8; 37 °C
Procedure: IP3K reactions were carried out in a 100ul solution that contained Tris-Cl, EGTA, ATP, DTT, 2,3-diphosphoglycerate, D-l(1,4,5)P3, [3H]-l(1,4,5)P3 and various amounts of synthetic purine analogues.

Sequence of Inositol-trisphosphate 3-kinase A (P23677 whole entry): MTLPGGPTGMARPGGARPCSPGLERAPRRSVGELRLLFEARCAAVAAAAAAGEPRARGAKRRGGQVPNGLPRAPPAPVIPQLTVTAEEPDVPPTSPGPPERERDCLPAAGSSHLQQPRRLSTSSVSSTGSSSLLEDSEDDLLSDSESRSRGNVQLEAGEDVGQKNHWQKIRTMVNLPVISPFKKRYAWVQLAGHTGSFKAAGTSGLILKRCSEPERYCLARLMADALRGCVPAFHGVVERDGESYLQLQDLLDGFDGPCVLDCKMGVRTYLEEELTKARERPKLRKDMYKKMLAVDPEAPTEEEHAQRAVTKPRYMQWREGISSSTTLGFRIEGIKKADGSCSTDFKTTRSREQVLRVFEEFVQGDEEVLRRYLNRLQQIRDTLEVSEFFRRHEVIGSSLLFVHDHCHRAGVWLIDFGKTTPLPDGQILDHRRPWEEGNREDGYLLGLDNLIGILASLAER

IC50 [µM]	Ki [µM]	Compound
18.2		O=[N+]([O-])c1ccc(CNc2nc(NCc3ccccc3C(F)(F)F)nc3nc[nH]c23)cc1 [Purine, 17]
12.7		O=[N+]([O-])c1ccc(CNc2nc(NCc3ccc(Cl)cc3)nc3nc[nH]c23)cc1 [Purine, 24]
63		c1ccc(CNc2nc(NCc3ccc4ccccc4c3)nc3nc[nH]c23)cc1 [Purine, 13]
> 200		O=[N+]([O-])c1cccc(CNc2nc(NCc3ccccc3Cl)nc3nc[nH]c23)c1 [Purine, 16]
150		Clc1cccc(CNc2nc(NCc3ccccc3)c3[nH]cnc3n2)c1 [Purine, 6]
138		Clc1ccc(CNc2nc(NCc3ccccc3)c3[nH]cnc3n2)cc1 [Purine, 7]
57.1		Cn1cnc2c(NCc3ccc(N)cc3)nc(NCc3cccc(C(F)(F)F)c3)nc21 [Purine, 1]
28		O=[N+]([O-])c1ccc(CNc2nc(NCc3ccccc3Cl)nc3nc[nH]c23)cc1 [Purine, 22]
150		Clc1ccc(CNc2nc(Nc3ccccc3)c3[nH]cnc3n2)cc1 [Purine, 10]
23.4		O=[N+]([O-])c1ccc(CNc2nc(NCc3ccccc3F)nc3nc[nH]c23)cc1 [Purine, 19]
67.6		O=[N+]([O-])c1ccc(CNc2nc(NCc3ccc(C(F)(F)F)cc3)nc3nc[nH]c23)cc1 [Purine, 18]
220		Fc1ccc(CNc2nc(NCc3ccccc3)c3[nH]cnc3n2)cc1 [Purine, 9]
43.4		FC(F)(F)c1cccc(CNc2nc(NCc3ccccc3)c3ncn(C4CCCCO4)c3n2)c1 (stereo not given) [Purine, 4]
> 200		NCc1cccc(CNc2nc(NCc3ccccc3)c3[nH]cnc3n2)c1 [Purine, 14]
20		O=[N+]([O-])c1ccc(CNc2nc(NCc3cccc(Cl)c3)nc3nc[nH]c23)cc1 [Purine, 23]
> 200		CC(C)n1cnc2c(Nc3cccc(Cl)c3)nc(NCc3cccc(C(F)(F)F)c3)nc21 [Purine, 12]
102		FC(F)(F)c1ccc(CNc2nc(NCc3ccc(C(F)(F)F)cc3)c3[nH]cnc3n2)cc1 [Purine, 8]
13.7		FC(F)(F)c1cccc(CNc2nc(NCc3ccccc3)c3nc[nH]c3n2)c1 [Purine, 3]
117		CC(Nc1nc(NCc2ccccc2)c2[nH]cnc2n1)c1ccccc1 (stereo not given) [Purine, 15]
49		O=[N+]([O-])c1ccc(CNc2nc(NCc3cccc(F)c3)nc3nc[nH]c23)cc1 [Purine, 20]
> 200		COc1ccc(CNc2nc(NCc3cccc(C(F)(F)F)c3)nc3c2ncn3C(C)C)cc1 [Purine, 11]
10.2	4.3	O=[N+]([O-])c1ccc(CNc2nc(NCc3cccc(C(F)(F)F)c3)nc3[nH]cnc23)cc1 [Purine, 5]
13.5		Nc1ccc(CNc2nc(NCc3cccc(C(F)(F)F)c3)nc3nc[nH]c23)cc1 [Purine, 2]
28.8		O=[N+]([O-])c1ccc(CNc2nc(NCc3ccc(F)cc3)nc3nc[nH]c23)cc1 [Purine, 21]
